# Test results reported in publication PMC4666608, “Metabolic Profiling of Chicken Embryos Exposed to Perfluorooctanoic Acid (PFOA) and Agonists to Peroxisome Proliferator-Activated Receptors” (PLoS ONE, 2015).
# Marks after values point to notes of the source that are not given here.
# System: chicken embryos
# Assay: Metabolic profiling of allantoic fluid (GC-MS, LC-MS, OPLS-DA)
# Assay type: in vivo, Gallus gallus domesticus
# Settings: 150 μg/egg
# Procedure: Controls were injected with 20 μL vehicle only (DMSO).
# Plasma was collected and stored at -70°C.
# Metabolites in allantoic fluid and blood plasma were analyzed using gas chromatography-mass spectrometry (GC-MS) and liquid chromatography-mass spectrometry (LC-MS) as described in S1 Methods. Prior to GC-MS and LC-MS analysis, allantoic fluid (100 μL) and blood plasma (50 μL) were extracted. To each sample, 900 μL (allantoic fluid) or 450 μL (blood plasma) of extraction buffer (90/10 v/v methanol:water) including all internal standards were added. Standards for GC-MS were proline, succinic acid, glutamic acid, salicylic acid, alpha-ketoglutarate, putrescine, myristic acid, hexadecanoic acid, cholesterol, and sucrose. Standards for LC-MS were Val-Tyr-Val, Leu-enkephalin, sulfadimethoxine and reserpine. Samples were homogenized by shaking in a bead mill at a frequency of 30 Hz for 3 minutes and proteins were precipitated at +4°C on ice. The samples were centrifuged at +4°C, 14000 rpm, for 10 min. Then, 200 μL supernatant was transferred to a GC microvial and 200 μL was transferred to an LC microvial, and solvents were evaporated. Samples from the four replicate experiments were analyzed using in chronological order and within each replicate experiment the run order of the individual samples was randomized.
# Multivariate statistical analyses of metabolite profiles were performed using the software package SIMCA-P version 13.0 (Umetrics, Umeå, Sweden). Data was centered and scaled to variance 1 (UV scaling) prior to modelling. To reduce unintended systematic variation caused by sample processing and instrument drift, GC-MS and LC-MS metabolite amounts (expressed as the area under the chromatographic peak) were normalized by Orthogonal Partial Least Squares analysis (O2PLS) prior to multivariate data analysis. O2PLS finds common (predictive) and unique (orthogonal) variation in two data matrices. If applied to find the common variation between the data matrix containing the measured metabolite concentrations and a matrix containing only the internal standards, the only common (predictive) variation expected is due to the unintended systematic variation. By deleting the contribution of the predictive latent variables, that variation can be removed from the data. Models obtained after this normalization contain in general less latent variables, and this simplification helps when deciding on the number of latent variables to be used. Following normalization, GC-MS and LC-MS data were analyzed together. Initially, a global Principal Component Analysis (PCA) was performed to get an overview of groups and trends and to identify outliers. Projections to latent structures by means of Orthogonal Partial Least Squares Discriminant Analysis (OPLS-DA) was used to model the relationship between the X-matrix (metabolite concentrations) and the Y matrix (class, i.e. exposure group or sex), and to find x-variables that were related to class belonging. OPLS-DA is a supervised prediction and regression method that rotates the projection plane to find the maximum covariance between the data and the class assignment. All groups were first analyzed together in a 5-class OPLS-DA and then each exposure group was analyzed against the control group in a 2-class OPLS-DA. Sex differences were analyzed both using the whole data set and in each group separately using 2-class OPLS-DA, with females and males as the two classes. Only variables with 80% or more nonzero values were included in the statistical models. […] The validity of each model was also checked using CV-ANOVA (ANOVA of the cross-validated residuals). A significance level of p < 0.05 was used. For each model, R ^2 X, R ^2 Y and Q ^2 values were calculated, where R ^2 X is a measure of the fraction of x variation modeled in the extracted latent variables, R ^2 Y is a measure of the fraction of y variation modeled and Q ^2 is an estimate of the predictive ability of the model and is calculated by cross-validation. […]
# [1] = GC, tentative 2-Oxovaleric acid
structure (smiles),measurement,setting,value
"CC(C)(Sc1ccc(CCN(CCCCC2CCCCC2)C(=O)NC2CCCCC2)cc1)C(=O)O [GW7647, reference compound]","Mean concentration relative to control, feature Win004_C08",GC,1.3***
same,"Mean concentration relative to control, feature Win005_C07",GC,1.4***
same,"Mean concentration relative to control, feature Win008_C06",GC,2.7***
same,"Mean concentration relative to control, feature Win022_C01",GC,2.3***
same,"Mean concentration relative to control, feature Win023_C06",GC,2.8***
same,"Mean concentration relative to control, feature win006_C01",GC,2.4***
same,"Mean concentration relative to control, feature Win008_C07","GC, tentative 1-Aminocyclopropanecarboxylic acid",1.4***
same,"Mean concentration relative to control, feature Win023_C03","GC, tentative 2-Oxoglutaric acid",2.5***
same,"Mean concentration relative to control, feature Win007_C09",[1],1.5***
same,"Mean concentration relative to control, feature Win008_C05",[1],1.6***
same,"Mean concentration relative to control, feature Win018_C04","GC, tentative 3-Amino-2-piperidone",1.4***
same,"Mean concentration relative to control, feature Win007_C03","GC, tentative 3-Hydroxybutanoic acid",1.3***
same,"Mean concentration relative to control, feature Win042_C02","GC, tentative Cystathionine",2.1***
same,"Mean concentration relative to control, feature Win009_C03","GC, tentative Ketoleucine",1.5***
same,"Mean concentration relative to control, feature Win008_C04","GC, tentative Malonic acid",1.3***
same,"Mean concentration relative to control, feature Win005_C03","GC, tentative Oxalic acid",0.8*
same,"Mean concentration relative to control, feature Win013_C05","GC, tentative Succinic acid",1.3***
same,"Mean concentration relative to control, feature 134.0239@1.1350567",LC,1.6*
same,"Mean concentration relative to control, feature 145.0538@3.072527",LC,1.8***
same,"Mean concentration relative to control, feature 147.0328@3.0722888",LC,1.7***
same,"Mean concentration relative to control, feature 160.0323@1.1950632",LC,1.1*
same,"Mean concentration relative to control, feature 173.0488@3.0734746",LC,1.8***
same,"Mean concentration relative to control, feature 176.0952@1.3890611",LC,0.6
same,"Mean concentration relative to control, feature 178.0428@1.7582192",LC,1.1
same,"Mean concentration relative to control, feature 180.0048@4.421465",LC,1.0
same,"Mean concentration relative to control, feature 189.1159@1.9209185",LC,0.8*
same,"Mean concentration relative to control, feature 197.0639@2.1181405",LC,1.2***
same,"Mean concentration relative to control, feature 201.012@3.046474",LC,1.5***
same,"Mean concentration relative to control, feature 202.0429@2.9548414",LC,1.1
same,"Mean concentration relative to control, feature 205.0533@4.421879",LC,1.0
same,"Mean concentration relative to control, feature 214.016@2.1190732",LC,1.3***
same,"Mean concentration relative to control, feature 226.0107@4.421457",LC,1.0
same,"Mean concentration relative to control, feature 236.0816@3.0720985",LC,1.7***
same,"Mean concentration relative to control, feature 241.0551@2.3510706",LC,1.2*
same,"Mean concentration relative to control, feature 243.1118@2.1537287",LC,1.0
same,"Mean concentration relative to control, feature 244.9972@4.421603",LC,1.0
same,"Mean concentration relative to control, feature 245.1563@2.2907295",LC,0.8*
same,"Mean concentration relative to control, feature 250.0981@3.072492",LC,1.8***
same,"Mean concentration relative to control, feature 262.0978@2.7961144",LC,2.6***
same,"Mean concentration relative to control, feature 263.0855@2.2847009",LC,2.1***
same,"Mean concentration relative to control, feature 270.0441@1.1407775",LC,0.9
same,"Mean concentration relative to control, feature 278.0928@3.0723689",LC,1.8***
same,"Mean concentration relative to control, feature 279.1248@2.796395",LC,3.2***
same,"Mean concentration relative to control, feature 280.1425@2.730277",LC,1.0
same,"Mean concentration relative to control, feature 288.1166@2.9551322",LC,1.2
same,"Mean concentration relative to control, feature 289.1012@3.249983",LC,1.8***
same,"Mean concentration relative to control, feature 289.173@7.5030584",LC,0.9
same,"Mean concentration relative to control, feature 294.1242@2.3692534",LC,1.0
same,"Mean concentration relative to control, feature 302.0508@3.0722616",LC,1.6***
same,"Mean concentration relative to control, feature 305.1682@5.353517",LC,1.7***
same,"Mean concentration relative to control, feature 305.1684@5.2955093",LC,1.6***
same,"Mean concentration relative to control, feature 308.073@4.4211636",LC,1.0
same,"Mean concentration relative to control, feature 310.1181@1.5090439",LC,1.1
same,"Mean concentration relative to control, feature 316.0389@3.0725708",LC,1.5***
same,"Mean concentration relative to control, feature 320.0626@3.0729218",LC,1.5***
same,"Mean concentration relative to control, feature 325.1114@2.1190624",LC,1.5***
same,"Mean concentration relative to control, feature 325.1115@2.3554378",LC,1.3*
same,"Mean concentration relative to control, feature 333.1335@2.8639288",LC,0.9
same,"Mean concentration relative to control, feature 333.2005@6.5291867",LC,1.3*
same,"Mean concentration relative to control, feature 335.1866@4.508565",LC,0.4***
same,"Mean concentration relative to control, feature 337.1651@1.8737898",LC,1.4***
same,"Mean concentration relative to control, feature 344.1424@2.348947",LC,1.3
same,"Mean concentration relative to control, feature 348.0553@3.0730357",LC,1.5***
same,"Mean concentration relative to control, feature 349.1651@2.4087605",LC,0.6***
same,"Mean concentration relative to control, feature 357.1997@6.9691257",LC,1.1
same,"Mean concentration relative to control, feature 371.1513@3.0009465",LC,1.2
same,"Mean concentration relative to control, feature 375.1819@3.672254",LC,0.6***
same,"Mean concentration relative to control, feature 394.167@3.9552917",LC,0.5***
same,"Mean concentration relative to control, feature 414.1482@2.118972",LC,1.5***
same,"Mean concentration relative to control, feature 466.0837@2.1187525",LC,1.5***
same,"Mean concentration relative to control, feature 488.0753@4.419585",LC,1.0
same,"Mean concentration relative to control, feature 498.1003@2.1184251",LC,1.4***
same,"Mean concentration relative to control, feature 507.1682@2.1238236",LC,1.4***
same,"Mean concentration relative to control, feature 580.1426@3.0726147",LC,2.3***
same,"Mean concentration relative to control, feature 582.1578@2.1747615",LC,1.7***
same,"Mean concentration relative to control, feature 588.1751@2.1182237",LC,1.5***
same,"Mean concentration relative to control, feature 594.1337@3.0724604",LC,2.3***
same,"Mean concentration relative to control, feature 604.1486@2.1174603",LC,1.5***
same,"Mean concentration relative to control, feature 623.183@2.1249466",LC,1.8***
same,"Mean concentration relative to control, feature 668.2625@6.4379454",LC,1.03*
same,"Mean concentration relative to control, feature 155.0353@0.6447272","LC, suggested C3H10NO4P",0.6
same,"Mean concentration relative to control, feature 345.0497@1.1234403","LC, suggested C10H12N5O7P",1.3*
same,"Mean concentration relative to control, feature 337.0259@4.4213357","LC, suggested C13H11N3O4S2",1.0
same,"Mean concentration relative to control, feature 344.1427@2.1164653","LC, suggested C13H20N4O7",1.5***
same,"Mean concentration relative to control, feature 331.184@6.373359","LC, suggested C13H25N5O5",1.3*
same,"Mean concentration relative to control, feature 361.2026@5.6644735","LC, suggested C16H31N3O4S",0.5***
